Data on 13 molecules can be found in patent publication US12227539B2, “Mogroside compounds and uses thereof” (Firmenich SA, priority 2019, dated 2025).

Experiment [1] is described as follows: Tasting of a sample of the purified compound (taste perceived, sweetness relative to sucrose). Conditions: for sweetness relative to sucrose: tasted at 500 ppm in a water base, approximate. The source says: The sweetness intensity perceived was weaker than the sweetness intensity perceived with mogroside V. However, the perception of licorice and lingering profile of isomogroside IVe was weaker than that of mogroside V (see table on following page).

Experiment [2] is described as follows: Sensory profile scores (Sweet, Licorice, Lingering) compared with mogroside V.
[3] abbreviates: tasted at a concentration of 250 ppm.
The mark [4] stands for this setting: tasted at a concentration of 500 ppm in a water base.

For the molecule `C[C@H](CC[C@@H](O[C@@H]1O[C@H](CO[C@@H]2O[C@H](CO)[C@@H](O)[C@H](O)[C@H]2O)[C@@H](O)[C@H](O)[C@H]1O[C@@H]1O[C@H](CO)[C@@H](O)[C@H](O)[C@H]1O)C(C)(C)O)[C@H]1CC[C@@]2(C)[C@@H]3CC=C4[C@@H](CC[C@H](O[C@@H]5O[C@H](CO[C@@H]6O[C@H](CO)[C@@H](O)[C@H](O)[C@H]6O)[C@@H](O)[C@H](O)[C@H]5O[C@@H]5O[C@H](CO)[C@@H](O)[C@H](O)[C@H]5O)C4(C)C)[C@]3(C)[C@H](O)C[C@]12C` (stereo in doubt) [Compound 14a, (1S,4R,9beta,11beta,24R)-1-{[beta-D-glucopyranosyl-(1→2)-[beta-D-glucopyranosyl-(1→6)]-beta-D-glucopyranosyl]oxy}-11,25-dihydroxy-9,10,14-trimethyl-4,9-cyclo-9,10-secocholest-5-en-24-yl beta-D-glucopyranosyl-(1→2)-[beta-D-glucopyranosyl-(1→6)]-beta-D-glucopyranoside], in experiment [1] (setting [3]), the taste perceived result is listed as “No taste”.

Regarding `C[C@H](C(O)C[C@@H](O[C@@H]1O[C@H](CO[C@@H]2O[C@H](CO)[C@@H](O)[C@H](O)[C@H]2O)[C@@H](O)[C@H](O)[C@H]1O)C(C)(C)O)[C@H]1CC[C@@]2(C)[C@@H]3CC=C4[C@@H](CC[C@H](O[C@@H]5O[C@H](CO[C@@H]6O[C@H](CO)[C@@H](O)[C@H](O)[C@H]6O)[C@@H](O)[C@H](O)[C@H]5O)C4(C)C)[C@]3(C)[C@H](O)C[C@]12C` (stereo partly drawn) [Compound 1a, (1S,4R,9beta,11alpha,24R)-1-{[6-O-(beta-D-glucopyranosyl)-beta-D-glucopyranosyl]oxy}-11,22,25-trihydroxy-9,10,14-trimethyl-4,9-cyclo-9,10-secocholest-5-en-24-yl 6-O-beta-D-glucopyranosyl-beta-D-glucopyranoside], the taste perceived result in experiment [1] (setting [3]) was “No taste”.

As to `C[C@H](C(O)C[C@@H](O[C@@H]1O[C@H](CO[C@@H]2O[C@H](CO)[C@@H](O)[C@H](O)[C@H]2O)[C@@H](O)[C@H](O)[C@H]1O)C(C)(C)O)[C@H]1CC[C@@]2(C)[C@@H]3CC=C4[C@@H](CC[C@H](O[C@@H]5O[C@H](CO)[C@@H](O)[C@H](O)[C@H]5O)C4(C)C)[C@]3(C)[C@H](O)C[C@]12C` (stereo partly drawn) [Compound 2a, (1S,4R,9beta,11alpha,24R)-1-(beta-D-glucopyranosyloxy)-11,22,25-trihydroxy-9,10,14-trimethyl-4,9-cyclo-9,10-secocholest-5-en-24-yl 6-O-beta-D-glucopyranosyl-beta-D-glucopyranoside], the “sweetness relative to sucrose” value in experiment [1] was 20-50 times sweeter than sucrose. In addition, the taste perceived entry in experiment [1] (setting [4]) is reported as “weak sweet taste”.

Turning to `C[C@H](C(O)C[C@@H](O[C@@H]1O[C@H](CO[C@@H]2O[C@H](CO)[C@@H](O)[C@H](O)[C@H]2O)[C@@H](O)[C@H](O)[C@H]1O)C(C)(C)O)[C@H]1CC[C@@]2(C)[C@@H]3CC=C4[C@@H](CC[C@H](O[C@@H]5O[C@H](CO)[C@@H](O)[C@H](O)[C@H]5O)C4(C)C)[C@]3(C)[C@@H](O)C[C@]12C` (stereo partly drawn) [Compound 2b, (1S,4R,9beta,11beta,24R)-1-(beta-D-glucopyranosyloxy)-11,22,25-trihydroxy-9,10,14-trimethyl-4,9-cyclo-9,10-secocholest-5-en-24-yl 6-O-beta-D-glucopyranosyl-beta-D-glucopyranoside], the taste perceived entry in experiment [1] (setting [3]) is recorded as “No taste”.

Turning to `C[C@H](CC[C@@H](O[C@@H]1O[C@H](CO[C@@H]2O[C@H](CO)[C@@H](O)[C@H](O)[C@H]2O)[C@@H](O)[C@H](O)[C@H]1O[C@@H]1O[C@H](CO)[C@@H](O)[C@H](O)[C@H]1O)C(C)(C)O)[C@H]1CC[C@@]2(C)[C@@H]3C(O)C=C4[C@@H](CC[C@H](O[C@@H]5O[C@H](CO[C@@H]6O[C@H](CO)[C@@H](O)[C@H](O)[C@H]6O)[C@@H](O)[C@H](O)[C@H]5O)C4(C)C)[C@]3(C)[C@H](O)C[C@]12C` (stereo partly drawn) [Compound 4a, (1S,4R,9beta,11alpha,24R)-1-{[6-O-(beta-D-glucopyranosyl)-beta-D-glucopyranosyl]oxy}-7,11,25-trihydroxy-9,10,14-trimethyl-4,9-cyclo-9,10-secocholest-5-en-24-yl beta-D-glucopyranosyl-(1→2)-[beta-D-glucopyranosyl-(1→6)]-beta-D-glucopyranoside], the “sweetness relative to sucrose” value in experiment [1] is on record as 30-60 times sweeter than sucrose. For the same molecule, the taste perceived result in experiment [1] (setting [4]) is on record as “weak sweet taste”.

`C[C@H](CC[C@@H](O[C@@H]1O[C@H](CO[C@@H]2O[C@H](CO)[C@@H](O)[C@H](O)[C@H]2O)[C@@H](O)[C@H](O)[C@H]1O[C@@H]1O[C@H](CO)[C@@H](O)[C@H](O)[C@H]1O)C(C)(C)O)[C@H]1CC[C@@]2(C)[C@@H]3CC=C4[C@@H](CC[C@H](O[C@@H]5O[C@H](CO[C@@H]6O[C@H](CO)[C@@H](O)[C@H](O)[C@H]6O)[C@@H](O)[C@H](O)[C@H]5O)C4(C)C)[C@]3(C=O)C(=O)C[C@]12C` [Compound 6a, (1S,4R,9beta,24R)-9-formyl-1-{[6-O-(beta-D-glucopyranosyl)-beta-D-glucopyranosyl]oxy}-25-hydroxy-10,14-dimethyl-11-oxo-4,9-cyclo-9,10-secocholest-5-en-24-yl beta-D-glucopyranosyl-(1→2)-[beta-D-glucopyranosyl-(1→6)]-beta-D-glucopyranoside]: in experiment [1], the “sweetness relative to sucrose” value is given as 100-200 times sweeter than sucrose. In addition, in experiment [1] (setting [4]), the taste perceived result is recorded as “strong sweet taste”.

Consider `CC(C)(O)[C@@H](CC[C@](C)(O)[C@H]1CC[C@@]2(C)[C@@H]3CC=C4[C@@H](CC[C@H](O[C@@H]5O[C@H](CO[C@@H]6O[C@H](CO)[C@@H](O)[C@H](O)[C@H]6O)[C@@H](O)[C@H](O)[C@H]5O)C4(C)C)[C@]3(C)[C@H](O)C[C@]12C)O[C@@H]1O[C@H](CO[C@@H]2O[C@H](CO)[C@@H](O)[C@H](O)[C@H]2O)[C@@H](O)[C@H](O)[C@H]1O[C@@H]1O[C@H](CO)[C@@H](O)[C@H](O)[C@H]1O` [Compound 7a, (1S,4R,9beta,11alpha,24R)-1-{[6-O-(beta-D-glucopyranosyl)-beta-D-glucopyranosyl]oxy}-11,20,25-trihydroxy-9,10,14-trimethyl-4,9-cyclo-9,10-secocholest-5-en-24-yl beta-D-glucopyranosyl-(1→2)-[beta-D-glucopyranosyl-(1→6)]-beta-D-glucopyranoside], for which the taste perceived result in experiment [1] (setting [3]) is given as “No taste”.

For the molecule `CC(C)(O)[C@@H](CC[C@](C)(O)[C@H]1CC[C@@]2(C)[C@@H]3CC=C4[C@@H](CC[C@H](O[C@@H]5O[C@H](CO)[C@@H](O)[C@H](O)[C@H]5O)C4(C)C)[C@]3(C)C(=O)C[C@]12C)O[C@@H]1O[C@H](CO[C@@H]2O[C@H](CO)[C@@H](O)[C@H](O)[C@H]2O)[C@@H](O)[C@H](O)[C@H]1O` [Compound 8a, (1S,4R,9beta,24R)-1-(beta-D-glucopyranosyloxy)-20,25-dihydroxy-9,10,14-trimethyl-11-oxo-4,9-cyclo-9,10-secocholest-5-en-24-yl 6-O-beta-D-glucopyranosyl-beta-D-glucopyranoside], in experiment [1] (setting [3]), the taste perceived result is “No taste”.

Consider `CC(C)(O)[C@@H](CC[C@](C)(O)[C@H]1CC[C@@]2(C)[C@@H]3CC=C4[C@@H](CC[C@H](O[C@@H]5O[C@H](CO[C@@H]6O[C@H](CO)[C@@H](O)[C@H](O)[C@H]6O)[C@@H](O)[C@H](O)[C@H]5O[C@@H]5O[C@H](CO)[C@@H](O)[C@H](O)[C@H]5O)C4(C)C)[C@]3(C)C(=O)C[C@]12C)O[C@@H]1O[C@H](CO[C@@H]2O[C@H](CO)[C@@H](O)[C@H](O)[C@H]2O)[C@@H](O)[C@H](O)[C@H]1O` [Compound 9a, (1S,4R,9beta,24R)-24-{[6-O-(beta-D-glucopyranosyl)-beta-D-glucopyranosyl]oxy}-20,25-dihydroxy-9,10,14-trimethyl-11-oxo-4,9-cyclo-9,10-secocholest-5-en-1-yl beta-D-glucopyranosyl-(1→2)-[beta-D-glucopyranosyl-(1→6)]-beta-D-glucopyranoside], for which the taste perceived result in experiment [1] (setting [3]) was “No taste”.

In experiment [2] (Dosage 250 ppm), `C[C@H](CC[C@@H](O[C@@H]1O[C@H](CO[C@@H]2O[C@H](CO)[C@@H](O)[C@H](O)[C@H]2O)[C@@H](O)[C@H](O)[C@H]1O[C@@H]1O[C@H](CO)[C@@H](O)[C@H](O)[C@H]1O)C(C)(C)O)[C@H]1CC[C@@]2(C)[C@@H]3CC=C4[C@@H](CC[C@H](O[C@@H]5O[C@H](CO[C@@H]6O[C@H](CO)[C@@H](O)[C@H](O)[C@H]6O)[C@@H](O)[C@H](O)[C@H]5O)C4(C)C)[C@]3(C)[C@H](O)C[C@]12C` [Mogroside V, reference compound] registered a Licorice of 3.8, a Lingering of 4.9 and a Sweet of 6.0. Besides, in experiment [2] (Dosage 500 ppm), the Licorice stood at 4.2, the Lingering worked out at 5.2 and the Sweet was 7.2.

For “(1S,4R,9beta,11alpha,24R)-24-{[6-O-(beta-D-glucopyranosyl)-beta-D-glucopyranosyl]oxy}-11,22,25-trihydroxy-9,10,14-trimethyl-4,9-cyclo-9,10-secocholest-5-en-1-yl 4-O-beta-D-glucopyranosyl-beta-D-glucopyranoside [Compound 3a]”, the taste perceived result in experiment [1] (setting [3]) is recorded as “No taste”.

Consider “(1S,4R,9beta,24R)-1-{[6-O-(beta-D-glucopyranosyl)-beta-D-glucopyranosyl]oxy}-25-hydroxy-9-(hydroxymethyl)-10,14-dimethyl-11-oxo-4,9-cyclo-9,10-secocholest-5-en-24-yl beta-D-glucopyranosyl-(1→2)-[beta-D-glucopyranosyl-(1→6)]-beta-D-glucopyranoside [Compound 5a]”, for which the taste perceived result in experiment [1] (setting [3]) is “No taste”.

Regarding “[(1S,4R,9beta,10R,24R)-24-{[beta-D-glucopyranosyl-(1→6)-beta-D-glucopyranosyl-(1→6)-beta-D-glucopyranosyl]oxy}-1,25-dihydroxy-9,14-dimethyl-11-oxo-4,9-cyclo-9,10-secocholest-5-en-10-yl]methyl beta-D-glucopyranosyl-(1→6)-[beta-D-glucopyranosyl-(1→4)-beta-D-glucopyranosyl-(1→2)]-beta-D-glucopyranoside [Compound 10a]”, the taste perceived entry in experiment [1] (setting [3]) is listed as “No taste”.
